≈ marks a conversion by molar mass, not a printed value.
Legend:
[1] = test system: E. coli (ATCC: 3008); experiment: Agar well diffusion, inhibition zone; format: cell-based, Escherichia coli; settings: for zone of inhibition at 15000 µg/mL: Escherichia coli, read-out: diameter of the inhibition zone; for diameter of the inhibition zone: E. coli (ATCC: 3008), Gram (−ve), agar well diffusion, 15 mg/mL, mean ± SD
[2] = test system: C. albicans (ATCC: 10231); experiment: Agar well diffusion, inhibition zone; format: cell-based, Candida albicans; settings: for diameter of the inhibition zone: C. albicans (ATCC: 10231), fungi, 15 mg/mL, mean ± SD
[3] = test system: P. aeruginosa (ATCC: 27853); experiment: Agar well diffusion, inhibition zone; format: cell-based, Pseudomonas aeruginosa; settings: P. aeruginosa (ATCC: 27853), Gram (−ve); agar well diffusion, 15 mg/mL; mean ± SD
[4] = test system: S. mutans (ATCC: 25175); experiment: Agar well diffusion, inhibition zone; format: cell-based, Streptococcus mutans; settings: for zone of inhibition at 15000 µg/mL: Streptococcus mutans, read-out: diameter of the inhibition zone; for diameter of the inhibition zone: S. mutans (ATCC: 25175), Gram (+ve), agar well diffusion, 15 mg/mL, mean ± SD
[5] = test system: S. aureus (ATCC: 6538); experiment: Agar well diffusion, inhibition zone; format: cell-based, Staphylococcus aureus; settings: for diameter of the inhibition zone: S. aureus (ATCC: 6538), Gram (+ve), agar well diffusion, 15 mg/mL, mean ± SD; for zone of inhibition at 15000 µg/mL: Staphylococcus aureus, read-out: diameter of the inhibition zone
[6] = test system: K. pneumonia (ATCC: 4415); experiment: Agar well diffusion, inhibition zone; format: cell-based, Klebsiella pneumonia; settings: for diameter of the inhibition zone: K. pneumonia (ATCC: 4415), Gram (−ve), 15 mg/mL, mean ± SD; for zone of inhibition at 15000 µg/mL: Klebsiella pneumoniae, read-out: diameter of the inhibition zone, K. pneumonia (ATCC: 4415), Gram (−ve), 15 mg/mL, mean ± SD
[7] = test system: C. albicans (ATCC: 10231); experiment: MIC, twofold serial dilution; format: cell-based, Candida albicans; settings: C. albicans (ATCC: 10231); read after 24 h
[8] = test system: S. aureus (ATCC: 6538); experiment: MIC, twofold serial dilution; format: cell-based; settings: Staphylococcus aureus, 24 h
[9] = test system: HFB4 human dermal fibroblast cell line; experiment: MTT cytotoxicity assay; format: cell-based; settings: 48 h
[10] = test system: E. coli (ATCC: 3008); experiment: MIC, twofold serial dilution; format: cell-based; settings: Escherichia coli, 24 h
[11] = target: T1, human DHFR (Homo sapiens, UniProt P00374); experiment: DHFR inhibitor screening kit; format: biochemical; settings: for inhibition at 0.01 µg/mL / inhibition at 0.1 µg/mL / inhibition at 1 µg/mL / inhibition at 10 µg/mL: read-out: Inhibition of DHFR enzyme
T1 sequence (P00374 1-187): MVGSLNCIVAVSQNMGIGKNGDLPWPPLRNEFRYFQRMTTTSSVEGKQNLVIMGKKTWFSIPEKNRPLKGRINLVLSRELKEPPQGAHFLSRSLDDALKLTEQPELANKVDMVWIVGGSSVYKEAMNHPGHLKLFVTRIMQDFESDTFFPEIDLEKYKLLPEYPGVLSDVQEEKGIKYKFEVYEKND

[12] = test system: S. mutans (ATCC: 25175); experiment: MIC, twofold serial dilution; format: cell-based; settings: Streptococcus mutans, 24 h
[13] = test system: K. pneumonia (ATCC: 4415); experiment: MIC, twofold serial dilution; format: cell-based; settings: Klebsiella pneumoniae, 24 h, read after 24 h

SMILES	zone of inhibition at 15000 µg/mL [1] [mm]	diameter of the inhibition zone [2]	diameter of the inhibition zone [3]	zone of inhibition at 15000 µg/mL [4] [mm]	diameter of the inhibition zone [5]	diameter of the inhibition zone [6]	zone of inhibition at 15000 µg/mL [6] [mm]	diameter of the inhibition zone [1]	diameter of the inhibition zone [4]	zone of inhibition at 15000 µg/mL [5] [mm]	further results
CSc1c(C(=O)Nc2ccc(C)cc2)c(N)n(NS(=O)(=O)c2ccccc2)c(=O)c1-c1nc2ccccc2s1 [compound 9c, 2-Amino-5-(benzo[d]thiazol-2-yl)-4-(methylthio)-6-oxo-1-(phenylsulfonamido)-N-(p-tolyl)-1,6-dihydropyridine-3-carboxamide]	14.8 ± 0.2	−	−	20.2 ± 1	−	29.2 ± 0.3 mm	29				
COc1ccc(NC(=O)c2c(SC)c(-c3nc4ccccc4s3)c(=O)n(NS(=O)(=O)c3ccccc3)c2N)cc1 [compound 9e, 2-Amino-5-(benzo[d]thiazol-2-yl)-N-(4-methoxyphenyl)-4-(methylthio)-6-oxo-1-(phenylsulfonamido)-1,6-dihydropyridine-3-carboxamide]		−	−			no activity and −		−	−	19.6 ± 1	
CSc1c(C(=O)Nc2ccc(C)cc2)c(N)n(NS(=O)(=O)c2ccc(C)cc2)c(=O)c1-c1nc2ccccc2s1 [compound 9d, 2-Amino-5-(benzo[d]thiazol-2-yl)-1-(4-methylphenylsulfonamido)-4-(methylthio)-6-oxo-N-(p-tolyl)-1,6-dihydropyridine-3-carboxamide]		28.0 ± 0.7 mm	−	8.8 ± 1		−		−		26.8 ± 1.5	zone of inhibition at 15000 µg/mL ([2]; Candida albicans, read-out: diameter of the inhibition zone, C. albicans (ATCC: 10231), fungi, 15 mg/mL, mean ± SD): 21 to 28 mm
COc1ccc(NC(=O)c2c(SC)c(-c3nc4ccccc4s3)c(=O)n(NS(=O)(=O)c3ccc(C)cc3)c2N)cc1 [compound 9f, 2-Amino-5-(benzo[d]thiazol-2-yl)-N-(4-methoxyphenyl)-1-(4-methylphenylsulfonamido)-4-(methylthio)-6-oxo-1,6-dihydropyridine-3-carboxamide]		−	−		−	29.6 ± 1.5 mm	29	−	−		
C[C@@H]1[C@H](O)[C@@H](C)/C=C/C=C/CC/C=C/C=C/C=C/C=C/C(O[C@H]2O[C@H](C)[C@@H](O)[C@H](N)[C@@H]2O)CC2O[C@](O)(CC(O)C(O)CCC(O)CC(O)CC(O)CC(=O)O[C@H]1C)CC(O)C2C(=O)O (stereo partly drawn) [Nystatin, reference compound]		28.0 ± 0.1 mm									MIC [7]: 31.25 µg/mL (≈ 33.7 µM)
Cc1ccc(S(=O)(=O)NNC(=O)Cc2nc3ccccc3s2)cc1 [compound 3b, N′-(2-(Benzo[d]thiazol-2-yl)acetyl)-4-methylbenzenesulfonohydrazide]	17.3 ± 2.5	−	−	10.6 ± 0.5			32 ± 2			17.6 ± 2.5	MIC [8]: 1000 µg/mL (≈ 2770 µM); IC50 [9]: 165 ± 3.04 µg/mL (≈ 456 µM); MIC [10]: 250 µg/mL (≈ 692 µM); IC50 [11]: 1.02 µM; inhibition at 0.01 µg/mL [11]: 17.9%; inhibition at 0.1 µg/mL [11]: 33.4%; inhibition at 1 µg/mL [11]: 60.9%; inhibition at 10 µg/mL [11]: 81.5%; MIC [12]: 1000 µg/mL (≈ 2770 µM)
O=C(Cc1nc2ccccc2s1)NNS(=O)(=O)c1ccccc1 [compound 3a, N′-(2-(Benzo[d]thiazol-2-yl)acetyl)benzenesulfonohydrazide]		−	−		−		20 ± 3	− ^a	−		
CSc1c(C#N)c(O)n(NS(=O)(=O)c2ccccc2)c(=O)c1-c1nc2ccccc2s1 [compound 5c, N-(3-(Benzo[d]thiazol-2-yl)-5-cyano-6-hydroxy-4-(methylthio)-2-oxopyridin-1(2H)-yl)benzenesulfonamide]	23.3 ± 1.5	−	−				27.3 ± 1.5		−	17.6 ± 1.5	
CSc1c(C#N)c(O)n(NS(=O)(=O)c2ccc(C)cc2)c(=O)c1-c1nc2ccccc2s1 [compound 5d, N-(3-(Benzo[d]thiazol-2-yl)-5-cyano-6-hydroxy-4-(methylthio)-2-oxopyridin-1(2H)-yl)-4-methylbenzenesulfonamide]		−	−				18.2 ± 0.5	−	−	17.5 ± 2	
CSc1c(C(=O)Nc2ccccc2)c(N)n(NS(=O)(=O)c2ccccc2)c(=O)c1-c1nc2ccccc2s1 [compound 9a, 2-Amino-5-(benzo[d]thiazol-2-yl)-4-(methylthio)-6-oxo-N-phenyl-1-(phenylsulfonamido)-1,6-dihydropyridine-3-carboxamide]		−	−		31 ± 1.0 mm	−		−	−	31 ± 1	
Cc1ccc(S(=O)(=O)Nn2c(N)c3c(N)n[nH]c3c(-c3nc4ccccc4s3)c2=O)cc1 [compound 11b, N-(3,4-Diamino-7-(benzo[d]thiazol-2-yl)-6-oxo-1H-pyrazolo[4,3-c]pyridin-5(6H)-yl)-4-methylbenzenesulfonamide]	26 ± 1	no potency and −	−	21 ± 1			17.5 ± 0.5	26.0 ± 1.0 mm		25.2 ± 1	MIC [8]: 500 µg/mL (≈ 1070 µM); IC50 [9]: 295 ± 19.1 µg/mL (≈ 631 µM); MIC [10]: 31.2 µg/mL (≈ 66.8 µM); IC50 [11]: 11.8 µM; inhibition at 0.01 µg/mL [11]: 12.4%; inhibition at 0.1 µg/mL [11]: 19.3%; inhibition at 1 µg/mL [11]: 31.2%; inhibition at 10 µg/mL [11]: 60.1%; MIC [12]: 500 µg/mL (≈ 1070 µM); MIC [13]: 125 µg/mL (≈ 267 µM)
CSc1c(C(=O)Nc2ccccc2)c(N)n(NS(=O)(=O)c2ccc(C)cc2)c(=O)c1-c1nc2ccccc2s1 [compound 9b, 2-Amino-5-(benzo[d]thiazol-2-yl)-1-(4-methylphenylsulfonamido)-4-(methylthio)-6-oxo-N-phenyl-1,6-dihydropyridine-3-carboxamide]		−	−			−		−	−	27.1 ± 0.2	
CC1(C)S[C@@H]2[C@H](NC(=O)[C@H](N)c3ccccc3)C(=O)N2[C@H]1C(=O)O [Ampicillin, reference compound]				22 ± 0.5						32 ± 0.5	MIC [8]: 62.5 µg/mL (≈ 179 µM); MIC [12]: 62.5 µg/mL (≈ 179 µM)

— publication PMC7226860 (ACS Omega, 2020)
